# Literature values as cited in PubChem BioAssay AID1259409 (Chemical Carcinogenesis Research Information System (CCRIS), 2018).
# Test system: rodent chemically induced tumor inhibition, incidence and multiplicity
# Assay: CCRIS tumor inhibitor studies
# Settings: 64091-91-4, Promoter: NONE USED
smiles,measurement,setting,value
S=C=NCCc1ccccc1,"tumour outcome (control, treated, inhibition, significance)","Carcinogen: 4-(METHYLNITROSAMINO)-1-(3-PYRIDYL)-1-BUTANONE, Dose [Inhibitor]: 3 UMOL/G DIET BEGINNING 1 WK PRIOR TO FIRST CARCINOGEN DOSE (STUDY DURATION: 104 WK), Route [Inhibitor]: ORAL, Species: RAT, Strain/Sex: F344/MALE, Target Tissue: Type of Lesion: HEMATOPOIETIC SYSTEM: LEUKEMIA OR LYMPHOMA, Dose [Carcinogen]: 1.76 MG/KG 3/WK FOR 20 WK","5/40 (13%), 3/40 (8%), 38%, not calculated"
same,"tumour outcome (control, treated, inhibition, significance)","Carcinogen: 4-(METHYLNITROSAMINO)-1-(3-PYRIDYL)-1-BUTANONE, Dose [Inhibitor]: 3 UMOL/G DIET BEGINNING 1 WK PRIOR TO FIRST CARCINOGEN DOSE (STUDY DURATION: 104 WK), Route [Inhibitor]: ORAL, Species: RAT, Strain/Sex: F344/MALE, Target Tissue: Type of Lesion: LUNG: ADENOMA OR CARCINOMA, Dose [Carcinogen]: 1.76 MG/KG 3/WK FOR 20 WK","32/40 (80%), 17/40 (43%), 46%, p<0.05"
same,"tumour outcome (control, treated, inhibition, significance)","Carcinogen: 4-(METHYLNITROSAMINO)-1-(3-PYRIDYL)-1-BUTANONE, Dose [Inhibitor]: 3 UMOL/G DIET BEGINNING 1 WK PRIOR TO FIRST CARCINOGEN DOSE (STUDY DURATION: 104 WK), Route [Inhibitor]: ORAL, Species: RAT, Strain/Sex: F344/MALE, Target Tissue: Type of Lesion: LUNG: ADENOMA OR HEPATOCELLULAR CARCINOMA, Dose [Carcinogen]: 1.76 MG/KG 3/WK FOR 20 WK","15/40 (38%), 14/40 (35%), 8%, not calculated"
same,"tumour outcome (control, treated, inhibition, significance)","Carcinogen: 4-(METHYLNITROSAMINO)-1-(3-PYRIDYL)-1-BUTANONE, Dose [Inhibitor]: 3 UMOL/G DIET BEGINNING 1 WK PRIOR TO FIRST CARCINOGEN DOSE (STUDY DURATION: 104 WK), Route [Inhibitor]: ORAL, Species: RAT, Strain/Sex: F344/MALE, Target Tissue: Type of Lesion: MAMMARY GLAND: ADENOCARCINOMA OR FIBROADENOMA OR FIBROMA, Dose [Carcinogen]: 1.76 MG/KG 3/WK FOR 20 WK","5/40 (13%), 0/40 (0%), 100%, not calculated"
same,"tumour outcome (control, treated, inhibition, significance)","Carcinogen: 4-(METHYLNITROSAMINO)-1-(3-PYRIDYL)-1-BUTANONE, Dose [Inhibitor]: 3 UMOL/G DIET BEGINNING 1 WK PRIOR TO FIRST CARCINOGEN DOSE (STUDY DURATION: 104 WK), Route [Inhibitor]: ORAL, Species: RAT, Strain/Sex: F344/MALE, Target Tissue: Type of Lesion: NASAL CAVITY: SQUAMOUS CELL PAPILLOMA OR TRANSITIONAL-CELL PAPILLOMA OR POLYP OR SQUAMOUS CELL CARCINOMA, Dose [Carcinogen]: 1.76 MG/KG 3/WK FOR 20 WK","11/40 (28%), 7/40 (18%), 36%, not calculated"
same,"tumour outcome (control, treated, inhibition, significance)","Carcinogen: 4-(METHYLNITROSAMINO)-1-(3-PYRIDYL)-1-BUTANONE, Dose [Inhibitor]: 3 UMOL/G DIET BEGINNING 1 WK PRIOR TO FIRST CARCINOGEN DOSE (STUDY DURATION: 104 WK), Route [Inhibitor]: ORAL, Species: RAT, Strain/Sex: F344/MALE, Target Tissue: Type of Lesion: PANCREAS: EXOCRINE ADENOCARCINOMA OR EXOCRINE ADENOMA, Dose [Carcinogen]: 1.76 MG/KG 3/WK FOR 20 WK","1/40 (3%), 5/40 (13%), -333%, not calculated"
same,"tumour outcome (control, treated, inhibition, significance)","Carcinogen: 4-(METHYLNITROSAMINO)-1-(3-PYRIDYL)-1-BUTANONE, Dose [Inhibitor]: 3 UMOL/G DIET BEGINNING 1 WK PRIOR TO FIRST CARCINOGEN DOSE (STUDY DURATION: 104 WK), Route [Inhibitor]: ORAL, Species: RAT, Strain/Sex: F344/MALE, Target Tissue: Type of Lesion: PERITONEUM: MESOTHELIOMA, Dose [Carcinogen]: 1.76 MG/KG 3/WK FOR 20 WK","1/40 (3%), 2/40 (5%), -67%, not calculated"
same,"tumour outcome (control, treated, inhibition, significance)","Carcinogen: 4-(METHYLNITROSAMINO)-1-(3-PYRIDYL)-1-BUTANONE, Dose [Inhibitor]: 3 UMOL/G DIET BEGINNING 1 WK PRIOR TO FIRST CARCINOGEN DOSE (STUDY DURATION: 104 WK), Route [Inhibitor]: ORAL, Species: RAT, Strain/Sex: F344/MALE, Target Tissue: Type of Lesion: STOMACH: SARCOMA OR PAPILLOMA, Dose [Carcinogen]: 1.76 MG/KG 3/WK FOR 20 WK","5/40 (13%), 2/40 (5%), 62%, not calculated"
same,"tumour outcome (control, treated, inhibition, significance)","Carcinogen: 4-(METHYLNITROSAMINO)-1-(3-PYRIDYL)-1-BUTANONE, Dose [Inhibitor]: 3 UMOL/G DIET BEGINNING 1 WK PRIOR TO FIRST CARCINOGEN DOSE (STUDY DURATION: 104 WK), Route [Inhibitor]: ORAL, Species: RAT, Strain/Sex: F344/MALE, Target Tissue: Type of Lesion: TESTES: TUMOR, Dose [Carcinogen]: 1.76 MG/KG 3/WK FOR 20 WK","31/40 (78%), 31/40 (78%), 0%"
same,"tumour outcome (control, treated, inhibition, significance)","Carcinogen: 4-(METHYLNITROSAMINO)-1-(3-PYRIDYL)-1-BUTANONE, Dose [Inhibitor]: 3 UMOL/G DIET BEGINNING 1 WK PRIOR TO FIRST CARCINOGEN DOSE (STUDY DURATION: 104 WK), Route [Inhibitor]: ORAL, Species: RAT, Strain/Sex: F344/MALE, Target Tissue: Type of Lesion: THYROID: MALIGNANT TUMOR OR BENIGN TUMOR, Dose [Carcinogen]: 1.76 MG/KG 3/WK FOR 20 WK","1/40 (3%), 3/40 (8%), -166%, not calculated"
same,"tumour outcome (control, treated, inhibition, significance)","Carcinogen: 4-(METHYLNITROSAMINO)-1-(3-PYRIDYL)-1-BUTANONE, Dose [Inhibitor]: 5 UMOL/D FOR 4 CONSECUTIVE DAYS (STUDY DURATION: 16 WK), Route [Inhibitor]: GAVAGE, Species: MOUSE, Strain/Sex: STRAIN-A/FEMALE, Target Tissue: Type of Lesion: LUNG: ADENOMA, Dose [Carcinogen]: 10 UMOL ONCE 2 HR POST LAST AGENT DOSE","30/30 (100%), 18/20 (89%), 11%, not calculated"
same,"tumour outcome (control, treated, inhibition, significance)","Carcinogen: 4-(METHYLNITROSAMINO)-1-(3-PYRIDYL)-1-BUTANONE, Dose [Inhibitor]: 25 UMOL/D FOR 4 CONSECUTIVE DAYS (STUDY DURATION: 16 WK), Route [Inhibitor]: GAVAGE, Species: MOUSE, Strain/Sex: STRAIN-A/FEMALE, Target Tissue: Type of Lesion: LUNG: ADENOMA, Dose [Carcinogen]: 10 UMOL ONCE 2 HR POST LAST AGENT DOSE","30/30 (100%), 6/20 (30%), 70%, p<0.01"
same,"tumour outcome (control, treated, inhibition, significance)","Carcinogen: 4-(N-NITROSOMETHYLAMINO)-1-(3-PYRIDYL)-1-BUTANONE, Dose [Inhibitor]: 0, 3 UMOL/G DIET BEGINNING 1 WK PRIOR TO CARCINOGEN TREATMENT AND CONTINUING FOR 21 WK (STUDY DURATION: 104 WK), Route [Inhibitor]: ORAL, Species: RAT, Strain/Sex: F344/MALE, Target Tissue: Type of Lesion: LIVER: ADENOMA, Dose [Carcinogen]: 1.76 MG/KG 3/WK FOR 20 WK","12/40 (30%), 9/40 (23%), 23%, not calculated"
same,"tumour outcome (control, treated, inhibition, significance)","Carcinogen: 4-(N-NITROSOMETHYLAMINO)-1-(3-PYRIDYL)-1-BUTANONE, Dose [Inhibitor]: 0, 3 UMOL/G/DIET BEGINNING 1 WK PRIOR TO CARCINOGEN TREATMENT AND CONTINUING FOR 21 WK (STUDY DURATION: 104 WK), Route [Inhibitor]: ORAL, Species: RAT, Strain/Sex: F344/MALE, Target Tissue: Type of Lesion: LIVER: CARCINOMA, Dose [Carcinogen]: 1.76 MG/KG 3/WK FOR 20 WK","3/40 (8%), 5/40 (13%), -62%, not calculated"
same,"tumour outcome (control, treated, inhibition, significance)","Carcinogen: 4-(N-NITROSOMETHYLAMINO)-1-(3-PYRIDYL)-1-BUTANONE, Dose [Inhibitor]: 0, 3 UMOL/G/DIET BEGINNING 1 WK PRIOR TO CARCINOGEN TREATMENT AND CONTINUING FOR 21 WK (STUDY DURATION: 104 WK), Route [Inhibitor]: ORAL, Species: RAT, Strain/Sex: F344/MALE, Target Tissue: Type of Lesion: LUNG: ADENOMA, Dose [Carcinogen]: 1.76 MG/KG 3/WK FOR 20 WK","8/40 (20%), 5/40 (13%), 35%, not calculated"
same,"tumour outcome (control, treated, inhibition, significance)","Carcinogen: 4-(N-NITROSOMETHYLAMINO)-1-(3-PYRIDYL)-1-BUTANONE, Dose [Inhibitor]: 0, 3 UMOL/G/DIET BEGINNING 1 WK PRIOR TO CARCINOGEN TREATMENT AND CONTINUING FOR 21 WK (STUDY DURATION: 104 WK), Route [Inhibitor]: ORAL, Species: RAT, Strain/Sex: F344/MALE, Target Tissue: Type of Lesion: LUNG: CARCINOMA, Dose [Carcinogen]: 1.76 MG/KG 3/WK FOR 20 WK","24/40 (60%), 12/40 (30%), 50%, not calculated"
